In US12297196B2, “Condensed bicyclic heterocyclic derivatives as pest control agents” (Bayer Aktiengesellschaft, priority 2019, dated 2025):

Legend:
[1] = system: mustard beetle (Phaedon cochleariae); assay: Comparative experiment: Phaedon cochleariae spray test (PHAECO); format: in vivo; conditions: 168 h, 7 dat, read-out: % efficacy; for Emax at 4 g/ha: 4 g of ai/ha; for Emax at 20 g/ha: 20 g of ai/ha
Method: Phaedon Cochleariae—Spray Test (PHAECO)
(§1) • Solvent: 78.0 parts by weight of acetone • 1.5 parts by weight of dimethylformamide • Emulsifier: alkylaryl polyglycol ether
(§2) To produce a suitable active compound formulation, 1 part by weight of active compound is dissolved using the stated parts by weight of solvent and made up with water containing an emulsifier concentration of 1000 ppm until the desired concentration is attained. To produce further test concentrations, the formulation is diluted with emulsifier-containing water.
Disks of Chinese cabbage leaves (Brassica pekinensis) are sprayed with an active compound formulation of the desired concentration and, after drying, populated with larvae of the mustard beetle (Phaedon cochleariae).
After the desired period of time, the efficacy in % is determined. 100% means that all the beetle larvae have been killed; 0% means that no beetle larvae have been killed.

[2] = system: armyworm (Spodoptera frugiperda); assay: Comparative experiment: Spodoptera frugiperda spray test (SPODFR); format: in vivo; conditions: 168 h, 7 dat, read-out: % efficacy; for Emax at 0.8 g/ha: 0.8 g of ai/ha; for Emax at 4 g/ha: 4 g of ai/ha; for Emax at 20 g/ha: 20 g of ai/ha
Method: Spodoptera Fruaiperda—Spray Test (SPODFR)
as §1, §2
Leaf disks of corn (Zea mays) are sprayed with an active compound formulation of the desired concentration and, after drying, populated with caterpillars of the armyworm (Spodoptera frugiperda).
After the desired period of time, the efficacy in % is determined. 100% means that all the caterpillars have been killed; 0% means that no caterpillar has been killed.

[3] = system: green peach aphid (Myzus persicae); assay: Myzus persicae spray test; format: in vivo; conditions: foliar, 120 h, after 5 days, Chinese cabbage leaf disks, read-out: efficacy in %
Method: Myzus Persicae—Spray Test
(§3) • Solvent: 78 parts by weight of acetone • 1.5 parts by weight of dimethylformamide • Emulsifier: alkylaryl polyglycol ether
as §2
Disks of Chinese cabbage leaves (Brassica pekinensis) infested by all stages of the green peach aphid (Myzus persicae) are sprayed with an active compound formulation of the desired concentration.
After 5 days, the efficacy in % is determined. 100% means that all the aphids have been killed; 0% means that no aphids have been killed.

[4] = log P by HPLC on reversed-phase column (C18), neutral range; format: physicochemical; conditions: ammonium carbonate in water / acetonitrile
Method: The log P values were determined according to EEC Directive 79/831 Annex V.A8 by HPLC (high-performance liquid chromatography) on a reversed-phase column (C18) using the following methods: ^[b] The log P value is determined by LC-UV measurement in the neutral range using 79 mg/l ammonium carbonate in water and acetonitrile as mobile phases (linear gradient from 10% acetonitrile to 95% acetonitrile). Calibration was carried out using a homologous series of straight-chain alkan-2-ones (having 3 to 16 carbon atoms) with known log P values. The values between successive alkanones are determined by linear regression.

[5] = system: green peach aphids (Myzus persicae); assay: Myzus persicae oral test; format: in vivo; conditions: 120 h, after 5 days, read-out: efficacy in %
Method: Myzus Persicae—Oral Test • Solvent: 100 parts by weight of acetone To produce a suitable active compound formulation, 1 part by weight of active compound is dissolved using the specified parts by weight of solvent and made up with water until the desired concentration is attained. 50 μl of the active compound preparation are transferred into microtitre plates and made up to a final volume of 200 μl with 150 μl of IPL41 insect medium (33%+15% sugar). Subsequently, the plates are sealed with parafilm, which a mixed population of green peach aphids (Myzus persicae) within a second microtitre plate is able to puncture and imbibe the solution through. After 5 days, the efficacy in % is determined. 100% means that all the aphids have been killed; 0% means that no aphids have been killed.

[6] = system: mustard beetle Phaedon cochleariae; assay: Phaedon cochleariae spray test; format: in vivo; conditions: 100 g/ha; after 7 days; Chinese cabbage leaf disks, larvae
Method: Phaedon Cochleariae—Spray Test
as §1, §2
Disks of Chinese cabbage leaves (Brassica pekinensis) are sprayed with an active compound formulation of the desired concentration and, after drying, populated with larvae of the mustard beetle Phaedon cochleariae).
After 7 days, the efficacy in % is determined. 100% means that all the beetle larvae have been killed; 0% means that no beetle larvae have been killed.

[7] = system: fall armyworm (Spodoptera frugiperda); assay: Spodoptera frugiperda spray test; format: in vivo; conditions: foliar, 168 h, after 7 days, corn leaf disks, caterpillars, read-out: efficacy in %
Method: Spodoptera Fruaiperda—Spray Test
as §1, §2
Leaf disks of corn (Zea mays) are sprayed with an active compound formulation of the desired concentration and, after drying, populated with caterpillars of the fall armyworm (Spodoptera frugiperda).
After 7 days, the efficacy in % is determined. 100% means that all the caterpillars have been killed; 0% means that no caterpillar has been killed.

[8] = system: green peach aphid (Myzus persicae); assay: Comparative experiment: Myzus persicae spray test (MYZUPE); format: in vivo; conditions: 120 h, 5 dat, read-out: % efficacy; for Emax at 4 g/ha: 4 g of ai/ha; for Emax at 20 g/ha: 20 g of ai/ha; for Emax at 100 g/ha: 100 g of ai/ha
Method: Myzus Persicae—Spray Test (MYZUPE)
as §1, §2
Disks of Chinese cabbage leaves (Brassica pekinensis) infested by all stages of the green peach aphid (Myzus persicae) are sprayed with an active compound preparation of the desired concentration.
After the desired period of time, the efficacy in % is determined. 100% means that all the aphids have been killed; 0% means that no aphids have been killed.

Diabrotica balteata = Diabrotica balteata spray test; format: in vivo; conditions: topical, 168 h, 100 g/ha (=32 μg/cavity), after 7 days, sprayed germinated wheat grains, beetle larvae, read-out: efficacy in %
Method: Diabrotica balteata—Spray Test
as §3, §2
Pre-swollen wheat grains (Triticum aestivum) are incubated in a multiwell plate filled with agar and a little water for one day (5 seed grains per cavity). The germinated wheat grains are sprayed with an active compound formulation of the desired concentration. Subsequently, each cavity is infected with 10−20 beetle larvae of Diabrotica balteata.
After 7 days, the efficacy in % is determined. 100% means that all wheat plants have grown as in the untreated, uninfected control; 0% means that no wheat plant has grown.

[9] = system: greenhouse red spider mite (Tetranychus urticae); assay: Tetranychus urticae spray test, OP-resistant; format: in vivo; conditions: 100 g/ha, after 6 days, bean leaf disks
Method: Tetranychus Urticae—Spray Test, OP-Resistant
as §1, §2
Disks of bean leaves (Phaseolus vulgaris) infested with all stages of the greenhouse red spider mite (Tetranychus urticae) are sprayed with an active compound formulation of the desired concentration.
After 6 days, the efficacy in % is determined. 100% means that all the spider mites have been killed; 0% means that no spider mites have been killed.

Compound | pest or weed control at 100 g/ha [3] | pest or weed control at 0.8 ppm [5] | pest or weed control at 4 ppm [5] | pest or weed control at 100 g/ha [7] | pest or weed control at 100 g/ha (Diabrotica balteata) | further results
CCS(=O)(=O)c1c(-c2nc3cc(C(F)(F)F)cnc3n2C)ncc2cc(C3(C#N)CC3)ccc12 [Example I-1, 1-[4-Ethylsulfonyl-3-[3-methyl-6-(trifluoromethy)imidazo[4,5-b]pyridin-2-yl]-7-isoquinolyl]cyclopropanecarbonitrile] | 90% | 90% | 100% | 100% |  | Emax at 4 g/ha [1]: 100%; Emax at 20 g/ha [1]: 100%; Emax at 0.8 g/ha [2]: 83%; Emax at 4 g/ha [2]: 100%; Emax at 20 g/ha [2]: 100%; chromatographic logP [4]: 3.02; efficacy in % [6]: 100%; Emax at 4 g/ha [8]: 70%; Emax at 20 g/ha [8]: 90%; Emax at 100 g/ha [8]: 90%
CCS(=O)(=O)c1c(-c2nc3cc(C(F)(F)C(F)(F)F)ncc3n2C)ncc2cc(C3(C#N)CC3)ccc12 [Example I-13] | 100% | 100% | 100% | 100% | 100% | 
CCSc1c(-c2nc3cc(C(F)(F)F)cnc3n2C)ncc2cc(Br)ccc12 [7-Bromo-4-ethylsulfanyl-3-[3-methyl-6-(trifluoromethyl)imidazo[4,5-b]pyridin-2-yl]isoquinoline] |  |  |  |  |  | chromatographic logP [4]: 4.36
CCSc1c(-c2nc3cc(C(F)(F)F)cnc3n2C)ncc2cc(CC#N)ccc12 [2-[4-Ethylsulfanyl-3-[3-methyl-6-(trifluoromethyl)imidazo[4,5-b]pyridin-2-yl]-7-isoquinolyl]acetonitrile] |  |  |  |  |  | chromatographic logP [4]: 3.22
CCS(=O)(=O)c1c(-c2nc3cc(C(F)(F)F)cnc3n2C)ncc2cc(C(F)(F)F)ccc12 [I′-51, reference compound] |  |  |  |  |  | Emax at 4 g/ha [8]: 0%; Emax at 20 g/ha [8]: 0%; Emax at 100 g/ha [8]: 90%
CCS(=O)(=O)c1c(-c2nc3cc(C(F)(F)F)cnc3n2C)ncc2ccccc12 [I′-47, reference compound] |  |  |  |  |  | Emax at 4 g/ha [1]: 0%; Emax at 20 g/ha [1]: 67%; Emax at 0.8 g/ha [2]: 0%; Emax at 4 g/ha [2]: 33%; Emax at 20 g/ha [2]: 67%
CCS(=O)(=O)c1c(-c2nc3cc(C(F)(F)F)nnc3n2C)ncc2cc(C3(C#N)CC3)ccc12 [Example I-9] | 90% | 90% |  | 100% | 100% | efficacy in % [9]: 90%
CCS(=O)(=O)c1c(-c2nc3cc(OC(F)(F)F)ccc3o2)ncc2cc(C3(C#N)CC3)ccc12 [Example I-8] |  |  |  | 100% | 100% | 
CCS(=O)(=O)c1c(-c2nc3cc(C(F)(F)C(F)(F)F)cnc3n2C)ncc2cc(C3(C#N)CC3)ccc12 [Example I-4] | 100% | 100% | 100% | 100% | 100% | 
CCS(=O)(=O)c1c(-c2nc3cc(S(=O)(=O)C(F)(F)F)ccc3o2)ncc2cc(C3(C#N)CC3)ccc12 [Example I-7] |  |  |  | 100% | 100% | 
CCS(=O)(=O)c1c(-c2nc3cc(OC(F)(F)F)ccc3n2C)ncc2cc(C3(C#N)CC3)ccc12 [Example I-12] | 100% | 90% | 100% | 100% | 100% | 
CCS(=O)(=O)c1c(-c2nc3cc(C(F)(F)C(F)F)cnc3n2C)ncc2cc(C3(C#N)CC3)ccc12 [Example I-14] | 100% | 100% | 100% | 100% | 100% | 
CCS(=O)(=O)c1c(-c2nc3cc(OC(F)(F)F)cnc3n2C)ncc2cc(C3(C#N)CC3)ccc12 [Example I-11] | 100% | 100% | 100% | 100% | 100% | 
CCS(=O)(=O)c1c(-c2nc3cc(C(F)(F)F)ccc3n2C)ncc2cc(C3(C#N)CC3)ccc12 [Example I-6] | 90% |  | 100% | 100% | 100% | 
CCS(=O)(=O)c1c(-c2nc3cc(C(F)(F)F)ncc3n2C)ncc2cc(C3(C#N)CC3)ccc12 [Example I-2] | 90% | 90% | 100% | 100% | 100% | 
CCS(=O)(=O)c1c(-c2nc3cc(OC(F)(F)C(F)(F)F)cnc3n2C)ncc2cc(C3(C#N)CC3)ccc12 [Example I-5] | 90% |  | 100% | 100% |  | 
CCSc1c(-c2nc3cc(C(F)(F)F)cnc3n2C)ncc2cc(C3(C#N)CC3)ccc12 [1-[4-Ethylsulfanyl-3-[3-methyl-6-(trifluoromethyl)imidazo[4,5-b]pyridin-2-yl]-7-isoquinolyl]cyclopropanecarbonitrile] |  |  |  |  |  | chromatographic logP [4]: 3.67
CCS(=O)(=O)c1c(-c2nc3cc(C(F)(F)C(F)(F)F)nnc3n2C)ncc2cc(C3(C#N)CC3)ccc12 [Example I-10] | 100% | 90% |  | 100% | 100% | 
CCS(=O)(=O)c1c(-c2nc3cc(C(F)(F)C(F)(F)F)ccc3o2)ncc2cc(C3(C#N)CC3)ccc12 [Example I-3] |  |  |  | 100% | 100% | 
